From ChEMBL document CHEMBL4251689, “Azabicyclic Fused Pyrimidine Derivatives Useful for the Treatment of Alzheimer's Disease” (ACS Med Chem Lett, 2018)

molecular target: Gamma-secretase; experiment: Inhibition of gamma-secretase (unknown origin) assessed as reduction in amyloid beta (1 to 42) production after 60 mins by cell based AlphaLisa assay; design: species or system Homo sapiens

| SMILES | EC50 [nM] |
| --- | --- |
| CNc1nc(N[C@@H]2[C@@H]3CC[C@H]2CN(c2ccnnc2)C3)nc2c1C(C)(C)CN2c1ccc(F)cc1 | 19 |
| CNc1nc(N[C@@H]2[C@@H]3CC[C@H]2CN(c2cc(C)ncn2)C3)nc2c1C(C)(C)CN2c1ccc(F)cc1 | 14 |
| CNc1nc(N[C@@H]2[C@@H]3CC[C@H]2CN(c2cc(C)ncn2)C3)nc2c1C(C)(C)CN2C12CC(C(F)(F)F)(C1)C2 | 111 |
| CNc1nc(N[C@@H]2[C@@H]3CC[C@H]2CN(c2cc(C)ncn2)C3)nc2c1C(C)(C)CN2C1CC(F)(F)C1 | 36 |
| CNc1nc(N[C@@H]2[C@@H]3CC[C@H]2CN(c2cc(C)ncn2)C3)nc2c1C(C)(C)CCN2c1ccc(F)cc1 | 35 |
| CNc1nc(N[C@@H]2[C@@H]3CC[C@H]2CN(c2nnc(C)o2)C3)nc2c1C(C)(C)CN2c1ccc(F)cc1 | 34 |
